Assay results published in patent publication US12102063B2 (SYNEXIS LLC, priority 2017, dated 2024).
Values joined by “and” are separate entries in the source; they are usually repeats but may differ in a detail not shown here. Identical values can stand only once. Like-named read-outs stand apart in the source and are kept apart here.

What was measured:
[1] = test system: MS2 Bacteriophage ATCC 15597-B1
[2] = test system: bacteria on commercial eggs
Protocol: For sampling, individual eggs are placed in Whirl-Pak bags containing 10 milliliters (ml) of tryptic soy broth and manually rubbed in bag for 1 minute each. The washed eggs are discarded. One (1) ml from each sample is transferred to a deep well plate in triplicate and 10 fold serial dilutions performed with tryptic soy broth to 10−^11 dilution. The deep well plates are incubated for 24 hours at 37° C. After incubation, 5 microliters (5 μl) of each well is stamped onto a 96-well plate containing either tryptic soy agar (TSA) or MacConkey (Macx) agar. TSA agar is a non-selective, general purpose media. Macx agar is a selective, differential culture media for Gram-negative enteric bacilli. The agar plates are incubated 24 hours at 37° C. and then scored for bacterial growth.
A similar experiment is performed under egg cooler conditions. […] In this experiment, 300 commercial eggs are placed in the cooler and twenty (20) eggs are sampled, four times over five (5) days at 0 hours, 24 hours, 72 hours, and 120 hours as described above.

E. coli K12 = settings: for Log10 reduction / Log10 reduction vs. Control: DHP (+)
[3] = test system: S. aureus ATCC 33592 (MRSA)
Protocol: 24 and 48 hour test cultures of S. aureus, as well as all A. brasiliensis and C. difficile are prepared with 0.1% Triton X-100. A 6 hour test culture of S. aureus is prepared with 5.0% Petal Bovine Serum and no Triton. Carriers (slides) are inoculated, in duplicate per test microorganism per condition, at a target concentration of 1×10^6 CPU/Carrier. Inoculated carriers are allowed to dry at ambient temperatures, and are then placed in respective conditions to endure contact times. Carriers for S. aureus endured contact times of 6, 24, and 48 hours. Carriers for A. brasiliensis endured contact times of 12, 24, and 48 hours. […] After respective contact times, carriers are harvested in 10.0 mL of D/E Broth, vortex mixed, diluted, and plated on the appropriate growth media for each microorganism. Environmental conditions are monitored using the Drager Rohrchen, and Drager Polytron methods described in Example 1. (Note: The limit of detection for this assay is 5.0 CPU. Samples with no detectable colonies are listed as <5.00E+OO in the table).

[4] = Day 4 DHP+, summary of replicates stored 4 days
[5] = Day 5 DHP+, summary of replicates stored 5 days
[6] = Day 6 DHP+, summary of replicates stored 6 days
[7] = Day 7 DHP+, summary of replicates stored 7 days
[8] = Delta Avg. Trtd versus Avg. Untrd, egg storage 4 to 7 days
[9] = Mean / Avg. Trtd, 22 DHP replicates, egg storage 4 to 7 days
[10] = with DHP, egg storage 4 days, single replicate of 90 eggs
[11] = with DHP, egg storage 5 days, single replicate of 90 eggs
[12] = with DHP, egg storage 6 days, single replicate of 90 eggs
[13] = with DHP, egg storage 7 days, single replicate of 90 eggs

Protocol for eggs and hatched chicks: A total of 22 replicates of 90 eggs each of age matched, flock matched eggs are stored prior to incubation for 4 to 7 days in an on-site egg room at about 20° C. […] The paired replicates are then incubated to hatching under standard commercial conditions. At hatching, the following parameters are assessed and recorded: Total Hatchability (%), Fertile Hatchability (%),% Infertile, Early dead (%), Mid dead (%), Late dead (%), Cracked (%), Contaminated (%), Live pip (%), Dead pip (%), Cull dead chick (%), Chick Weight (g), Chick A (%), and Chick B (%).

Compound: OO [DHP, dry hydrogen peroxide]
- Log10 reduction ([1]; DHP (+), 1 hour): 3.54 Log10
- Log10 reduction vs. Control ([1]; DHP (+), 1 hour): 2.70 Log10
- elimination of airborne phage ([1]; within one hour): essentially eliminated
- growth on Mac, treated group ([2]; 72 hours compared to 0 hours, p=0.001): significantly less growth
- growth on Mac, treated group ([2]; 120 hours compared to 0 hours, p=0.0001): significantly more growth
- growth on Mac, treated group ([2]; 120 hours compared to 0 hours, p=0.05): significantly less growth
- Mac growth with treatment ([2]; egg cooler, 0-120 hours): low throughout
- TSA growth with treatment ([2]; egg cooler, 0-120 hours): static until 120 hours
- Log10 reduction (E. coli K12; 1 hour): >4.78 Log10
- Log10 reduction vs. Control (E. coli K12; 1 hour): 2.82 Log10
- Log10 reduction (E. coli K12; 2 hours): >4.79 Log10
- Log10 reduction vs. Control (E. coli K12; 2 hours): 1.71 Log10
- elimination of aerosolized bacteria from the DHP treated space (E. coli K12; within one hour): essentially eliminated
- % Infertile, delta (eggs and hatched chicks; 4 day delta, DHP+ versus DHP−): 0.64%
- Chick A, delta (eggs and hatched chicks; 4 day delta, DHP+ versus DHP−): 0.14%
- Chick B, delta (eggs and hatched chicks; 4 day delta, DHP+ versus DHP−): −0.14%
- Chick Weight, delta (eggs and hatched chicks; 4 day delta, DHP+ versus DHP−): 0.89 g
- Cont, delta (eggs and hatched chicks; 4 day delta, DHP+ versus DHP−): 0.00%
- Crack, delta (eggs and hatched chicks; 4 day delta, DHP+ versus DHP−): 0.32%
- Cull dead cks, delta (eggs and hatched chicks; 4 day delta, DHP+ versus DHP−): 0.00%
- Dead pip, delta (eggs and hatched chicks; 4 day delta, DHP+ versus DHP−): −0.16%
- Early dead, delta (eggs and hatched chicks; 4 day delta, DHP+ versus DHP−): −0.33%
- Fertile Hatchability, delta (eggs and hatched chicks; 4 day delta, DHP+ versus DHP−): 0.12%
- Late dead, delta (eggs and hatched chicks; 4 day delta, DHP+ versus DHP−): −0.64%
- Live pip, delta (eggs and hatched chicks; 4 day delta, DHP+ versus DHP−): 0.63%
- Mid dead, delta (eggs and hatched chicks; 4 day delta, DHP+ versus DHP−): 0.16%
- Total Hatchability, delta (eggs and hatched chicks; 4 day delta, DHP+ versus DHP−): −0.64%
- Chick Weight, delta (eggs and hatched chicks; 5 day delta, DHP+ versus DHP−): 0.85 g
- Cont, delta (eggs and hatched chicks; 5 day delta, DHP+ versus DHP−): 0.00%
- Crack, delta (eggs and hatched chicks; 5 day delta, DHP+ versus DHP−): −0.19%
- Cull dead cks, delta (eggs and hatched chicks; 5 day delta, DHP+ versus DHP−): 0.00%
- Dead pip, delta (eggs and hatched chicks; 5 day delta, DHP+ versus DHP−): −0.37%
- Early dead, delta (eggs and hatched chicks; 5 day delta, DHP+ versus DHP−): −1.70%
- Fertile Hatchability, delta (eggs and hatched chicks; 5 day delta, DHP+ versus DHP−): 3.20%
- Live pip, delta (eggs and hatched chicks; 5 day delta, DHP+ versus DHP−): 0.37%
- Mid dead, delta (eggs and hatched chicks; 5 day delta, DHP+ versus DHP−): 0.74%
- % Infertile, delta (eggs and hatched chicks; 6 day delta, DHP+ versus DHP−): 0.94%
- Chick A, delta (eggs and hatched chicks; 6 day delta, DHP+ versus DHP−): −0.57%
- Chick B, delta (eggs and hatched chicks; 6 day delta, DHP+ versus DHP−): 0.57%
- Chick Weight, delta (eggs and hatched chicks; 6 day delta, DHP+ versus DHP−): 0.49 g
- Cont, delta (eggs and hatched chicks; 6 day delta, DHP+ versus DHP−): 0.00%
- Crack, delta (eggs and hatched chicks; 6 day delta, DHP+ versus DHP−): 0.00%
- Cull dead cks, delta (eggs and hatched chicks; 6 day delta, DHP+ versus DHP−): −0.48%
- Dead pip, delta (eggs and hatched chicks; 6 day delta, DHP+ versus DHP−): −0.48%
- Late dead, delta (eggs and hatched chicks; 6 day delta, DHP+ versus DHP−): −0.82%
- Live pip, delta (eggs and hatched chicks; 6 day delta, DHP+ versus DHP−): −0.16%
- Mid dead, delta (eggs and hatched chicks; 6 day delta, DHP+ versus DHP−): 0.48%
- Cont (eggs and hatched chicks; [4]): 0.00%
- Crack (eggs and hatched chicks; [4]): 0.48%
- Cull dead cks (eggs and hatched chicks; [4]): 0.00%
- Dead pip (eggs and hatched chicks; [4]): 0.16%
- Live pip (eggs and hatched chicks; [4]): 0.95%
- Mid dead (eggs and hatched chicks; [4]): 0.16%
- Cont (eggs and hatched chicks; [5]): 0.00%
- Crack (eggs and hatched chicks; [5]): 0.00%
- Cull dead cks (eggs and hatched chicks; [5]): 0.00%
- Dead pip (eggs and hatched chicks; [5]): 0.00%
- Live pip (eggs and hatched chicks; [5]): 0.56%
- Mid dead (eggs and hatched chicks; [5]): 0.93%
- Cont (eggs and hatched chicks; [6]): 0.00%
- Crack (eggs and hatched chicks; [6]): 0.00%
- Cull dead cks (eggs and hatched chicks; [6]): 0.00%
- Dead pip (eggs and hatched chicks; [6]): 0.00%
- Early dead (eggs and hatched chicks; [6]): 2.70%
- Live pip (eggs and hatched chicks; [6]): 0.16%
- Mid dead (eggs and hatched chicks; [6]): 0.79%
- % Infertile (eggs and hatched chicks; [7]): 0.56%
- Cont (eggs and hatched chicks; [7]): 0.00%
- Crack (eggs and hatched chicks; [7]): 0.00%
- Cull dead cks (eggs and hatched chicks; [7]): 0.56%
- Dead pip (eggs and hatched chicks; [7]): 0.00%
- Mid dead (eggs and hatched chicks; [7]): 0.56%
- % Infertile, delta (eggs and hatched chicks; Day 7 Delta, DHP+ versus DHP−): 0.00%
- Chick Weight, delta (eggs and hatched chicks; Day 7 Delta, DHP+ versus DHP−): 1.10 g
- Cont, delta (eggs and hatched chicks; Day 7 Delta, DHP+ versus DHP−): −0.56%
- Crack, delta (eggs and hatched chicks; Day 7 Delta, DHP+ versus DHP−): 0.00%
- Cull dead cks, delta (eggs and hatched chicks; Day 7 Delta, DHP+ versus DHP−): 0.56%
- Dead pip, delta (eggs and hatched chicks; Day 7 Delta, DHP+ versus DHP−): 0.00%
- Fertile Hatchability, delta (eggs and hatched chicks; Day 7 Delta, DHP+ versus DHP−): 0.56%
- Late dead, delta (eggs and hatched chicks; Day 7 Delta, DHP+ versus DHP−): 0.55%
- Mid dead, delta (eggs and hatched chicks; Day 7 Delta, DHP+ versus DHP−): 0.56%
- Total Hatchability, delta (eggs and hatched chicks; Day 7 Delta, DHP+ versus DHP−): 0.56%
- % Infertile, delta (eggs and hatched chicks; [8]): 1.00%
- Chick A, delta (eggs and hatched chicks; [8]): 0.23%
- Chick B, delta (eggs and hatched chicks; [8]): −0.23%
- Chick Weight, delta (eggs and hatched chicks; [8]): 0.77 g
- Cont, delta (eggs and hatched chicks; [8]): −0.05%
- Crack, delta (eggs and hatched chicks; [8]): 0.05%
- Cull dead cks, delta (eggs and hatched chicks; [8]): −0.10%
- Dead pip, delta (eggs and hatched chicks; [8]): −0.30%
- Early dead, delta (eggs and hatched chicks; [8]): −1.70%
- Late dead, delta (eggs and hatched chicks; [8]): −0.97%
- Live pip, delta (eggs and hatched chicks; [8]): 0.35%
- Mid dead, delta (eggs and hatched chicks; [8]): 0.45%
- Cont (eggs and hatched chicks; [9]): 0.00%
- Crack (eggs and hatched chicks; [9]): 0.15%
- Cull dead cks (eggs and hatched chicks; [9]): 0.05%
- Dead pip (eggs and hatched chicks; [9]): 0.05%
- Live pip (eggs and hatched chicks; [9]): 0.61%
- Mid dead (eggs and hatched chicks; [9]): 0.61%
- improvement in number of A grade chicks (eggs and hatched chicks; all storage times): 0.23%
- increase of fertile hatchability vs untreated (eggs and hatched chicks; an additional day (five days)): 3.2%
- increase of total hatchability vs untreated (eggs and hatched chicks; an additional day (five days)): 1.3%
- increased weight vs untreated (eggs and hatched chicks; an additional day (five days)): 0.85 grams
- DHP gas treated eggs observed to be contaminated (eggs and hatched chicks; at day 7): none
- decrease of number of early deaths (eggs and hatched chicks; death during incubation): about 1.7%
- mid cycle deaths (eggs and hatched chicks; death during incubation): decreased
- change of fertile hatchability vs untreated (eggs and hatched chicks; eggs treated four days): +0.12
- change of total hatchability vs untreated (eggs and hatched chicks; eggs treated four days): −0.64%
- increased weight vs untreated (eggs and hatched chicks; eggs treated four days): +0.89 g
- increase of fertile hatchability vs untreated (eggs and hatched chicks; seven day storage): 0.56%
- increase of total hatchability vs untreated (eggs and hatched chicks; seven day storage): 0.56%
- increased weight vs untreated (eggs and hatched chicks; seven day storage): 1.10 grams
- increase of fertile hatchability vs untreated (eggs and hatched chicks; six days): 4.67%
- increase of total hatchability vs untreated (eggs and hatched chicks; six days): 2.96%
- increased weight vs untreated (eggs and hatched chicks; six days): 0.49 grams
- number of live pip eggs (eggs and hatched chicks; vs untreated): increases
- % Infer (eggs and hatched chicks; [10]): 0.00%
- Chick B (eggs and hatched chicks; [10]): 2.40% and 4.80% and 3.70%
- Cont (eggs and hatched chicks; [10]): 0.00%
- Crack (eggs and hatched chicks; [10]): 0.00%
- Cull dead (eggs and hatched chicks; [10]): 0.00%
- Dead pip (eggs and hatched chicks; [10]): 0.00%
- Late dead (eggs and hatched chicks; [10]): 0.00%
- Live pip (eggs and hatched chicks; [10]): 0.00%
- Mid dead (eggs and hatched chicks; [10]): 0.00%
- % Infer (eggs and hatched chicks; [11]): 10.00%
- Chick A (eggs and hatched chicks; [11]): 100.0%
- Cont (eggs and hatched chicks; [11]): 0.00%
- Crack (eggs and hatched chicks; [11]): 0.00%
- Cull dead (eggs and hatched chicks; [11]): 0.00%
- Dead pip (eggs and hatched chicks; [11]): 0.00%
- Late dead (eggs and hatched chicks; [11]): 0.00%
- Live pip (eggs and hatched chicks; [11]): 0.00%
- Mid dead (eggs and hatched chicks; [11]): 0.00%
- Total Hatchblty (eggs and hatched chicks; [11]): 90.00%
- % Infer (eggs and hatched chicks; [12]): 0.00%
- Chick B (eggs and hatched chicks; [12]): 4.80%
- Cont (eggs and hatched chicks; [12]): 0.00%
- Crack (eggs and hatched chicks; [12]): 0.00%
- Cull dead (eggs and hatched chicks; [12]): 0.00%
- Dead pip (eggs and hatched chicks; [12]): 0.00%
- Late dead (eggs and hatched chicks; [12]): 0.00%
- Live pip (eggs and hatched chicks; [12]): 0.00%
- Mid dead (eggs and hatched chicks; [12]): 0.00%
- Total Hatchblty (eggs and hatched chicks; [12]): 90.00%
- % Infer (eggs and hatched chicks; [13]): 0.00%
- Check Weight (eggs and hatched chicks; [13]): 44.94 g and 44.41 g
- Cont (eggs and hatched chicks; [13]): 0.00%
- Crack (eggs and hatched chicks; [13]): 0.00%
- Cull dead (eggs and hatched chicks; [13]): 0.00%
- Dead pip (eggs and hatched chicks; [13]): 0.00%
- Live pip (eggs and hatched chicks; [13]): 0.00%
- Mid dead (eggs and hatched chicks; [13]): 0.00%
- % Reduction compared ([3]; 6 Hours, Hood (Treated)): 95.150%
- Log Reduction compared to ([3]; 6 Hours, Hood (Treated)): 1.31 Log
- % Reduction compared ([3]; 6 Hours, Room (Treated)): 83.053%
- Log Reduction compared to ([3]; 6 Hours, Room (Treated)): 0.77 Log
- % Reduction compared ([3]; 24 Hours, Hood (Treated)): >66.667%
- Log Reduction compared to ([3]; 24 Hours, Hood (Treated)): >0.48 Log
- Replicate CFU/Carrier ([3]; 24 Hours, Hood (Treated)): <5.00E+00 CFU/Carrier
- % Reduction compared ([3]; 24 Hours, Room (Treated)): >88.889%
- Average CFU/Carrier ([3]; 24 Hours, Room (Treated)): <5.00E+00 CFU/Carrier
- Log Reduction compared to ([3]; 24 Hours, Room (Treated)): >0.95 Log
- Replicate CFU/Carrier ([3]; 24 Hours, Room (Treated)): 5.00E+00 CFU/Carrier and <5.00E+00 CFU/Carrier
- % Reduction compared ([3]; 48 Hours, Hood (Treated)): >78.947%
- Log Reduction compared to ([3]; 48 Hours, Hood (Treated)): >0.68 Log
- Replicate CFU/Carrier ([3]; 48 Hours, Hood (Treated)): <5.00E+00 CFU/Carrier
- % Reduction compared ([3]; 48 Hours, Room (Treated)): >89.474%
- Average CFU/Carrier ([3]; 48 Hours, Room (Treated)): <5.00E+00 CFU/Carrier
- Log Reduction compared to ([3]; 48 Hours, Room (Treated)): >0.98 Log
- Replicate CFU/Carrier ([3]; 48 Hours, Room (Treated)): <5.00E+00 CFU/Carrier
